According to article PMC4900628, “Critical Evaluation of P2X7 Receptor Antagonists in Selected Seizure Models” (PLoS ONE, 2016):

Assays:
[1] = parameters: method as in earlier work; settings: 45.5 mg/kg i.p. every 48h for 1 month, ref [11] of S1 File, cited from earlier work
[2] = system: Iba 1 and GFAP immunoreactivity; test: Iba 1 and GFAP immunohistochemistry, hippocampus of PTZ-kindled rats; type: in vivo; settings: hippocampus CA3, 24h after the 25th PTZ injection, pre-treated with AFC or JNJ
Description: One day after the last kindling session (after the 25th injection), vehicle/PTZ and compound/PTZ-treated rats as well as vehicle-only-treated or non-treated (naïve) rats as controls were transcardially perfused under deep CO2-anesthesia with 0.9% NaCl-solution, 2% paraformaldehyde (PFA, in 0.1 M sodium acetate buffer, pH 6.5) and 2% PFA/0.1% glutaraldehyde (in 0.1 M sodium borate buffer, pH 8.5) (see [73]). Brains were removed immediately and placed for 24 h in 2% PFA without glutaraldehyde (in 0.1 M sodium borate buffer, pH 8.5) at 4°C for post-fixation. […]
For immunohistochemical studies, free-floating slices were incubated in 0.1 M Sørensen’s phosphate buffer (SPP) containing 1% H2O2 for 25 min. […] The immunoreactivity was evaluated using a light microscope (Axioskop, Zeiss) equipped with a CCD digital camera (AxioCam, ICc 1, Zeiss). For quantitative analysis of the GFAP and Iba 1-staining, images (20x magnification) from the hippocampal CA3 region of vehicle-only (controls) and vehicle/PTZ-treated animals (n = 10) were recorded at constant microscope adjustment and were evaluated with the LSM (LSM 510 Meta, Zeiss) using the semiautomatic image analysis software “Histogram” function. Significant differences were determined by calculating the abundance of densely stained pixels (pixel values lower than 67% of the background) using a two-tailed Wilcoxon rank sum test. […]

P2X7R = target: T1, P2X7R (Rattus norvegicus, UniProt Q64663); test: P2X7R brain occupancy, ex vivo receptor binding autoradiography; type: in vivo; settings: sc, rats, 15 mg/kg s.c., hippocampal slices, [3H] JNJ-54232334 autoradiography
T1 construct: from tissue; host or cells: rat (Wistar) brain, hippocampal slices
T1 sequence (Q64663 1-595): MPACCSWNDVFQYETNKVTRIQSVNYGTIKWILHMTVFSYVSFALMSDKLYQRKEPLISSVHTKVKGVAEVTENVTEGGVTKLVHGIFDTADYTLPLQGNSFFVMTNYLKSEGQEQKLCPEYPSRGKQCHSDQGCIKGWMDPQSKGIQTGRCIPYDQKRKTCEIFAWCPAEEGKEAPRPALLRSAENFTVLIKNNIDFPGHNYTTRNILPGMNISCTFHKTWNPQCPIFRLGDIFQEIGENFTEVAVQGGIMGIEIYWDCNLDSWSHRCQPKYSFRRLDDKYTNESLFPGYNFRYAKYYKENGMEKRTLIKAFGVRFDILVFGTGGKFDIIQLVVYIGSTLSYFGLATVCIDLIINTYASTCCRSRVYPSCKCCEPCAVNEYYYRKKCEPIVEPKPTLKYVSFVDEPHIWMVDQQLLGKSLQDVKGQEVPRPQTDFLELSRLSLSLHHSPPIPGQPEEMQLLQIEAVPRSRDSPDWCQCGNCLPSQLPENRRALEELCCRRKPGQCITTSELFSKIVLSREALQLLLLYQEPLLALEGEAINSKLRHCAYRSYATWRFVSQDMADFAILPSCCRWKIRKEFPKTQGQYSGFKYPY
Description: Plasma and brain samples from experiments with JNJ-47965567 were quantified at the Neuroscience Therapeutic Area, Janssen Research & Development (San Diego, CA, USA) using an API 4000 MS/MS system (Applied Biosystems, Concord, ON, Canada) interfaced with an Agilent 1100 Series HPLC (Agilent Technologies). To measure the percentage of P2X7R brain occupancy of JNJ-47965567, ex vivo receptor binding autography was performed as recently described. Briefly, 20 μm-thick hippocampal slices were prepared and P2X7R radioligand binding was determined at room temperature with 10 nM [^3H] JNJ-54232334 (Janssen) in 50 mM Tris-HCl incubation buffer containing 0.1% bovine serum albumin. The non-specific binding was measured using adjacent sections incubated in the additional presence of 100 μM A-740003 (Tocris Bioscience, Bristol UK). Sections were incubated for 1 min, washed in ice-cold incubation buffer (4 times, 5 min each), followed by two dips in deionized water and rapidly dry under a stream of cold air before acquisition. Quantitative analysis was performed using the Tracer ß-Imager with M3 Vision software (Biospace Lab, Paris, France). Ex vivo receptor labelling was expressed as the percentage of receptor labelling in corresponding brain areas of vehicle-treated control animals.

Structure (SMILES)	brain-plasma ratio in mice [1]	brain concentrations in mice ([1]; spectrophotometric analysis) [nM]	immunostaining for Iba 1 and GFAP compared to vehicle/PTZ-treated animals [2]	receptor occupancy at 15 mg/kg (P2X7R) [%]
CCOc1ccc(Nc2ccc(/C(=C3C=C/C(=[N+](/CC)Cc4cccc(S(=O)(=O)[O-])c4)C=C/3C)c3ccc(N(CC)Cc4cccc(S(=O)(=O)O)c4)cc3C)cc2)cc1 [Brilliant Blue G]	0.02	150		
O=C(NCC1(N2CCN(c3ccccc3)CC2)CCOCC1)c1cccnc1Sc1ccccc1 [JNJ-47965567, N-[[4-(4-phenyl-piperazin-1-yl)tetrahydro-2H-pyran-4-yl]-methyl]-2-(phenyl-thio) nicotinamide]			clearly reduced	98 ± 2
